Data published in the NIST ThermoML archive (doi:10.1016/j.jct.2013.09.017).
± gives the expanded uncertainty stated by the source.

Columns and labels:
[1] = 101 kPa, Liquid; for viscosity: Capillary tube (Ostwald / Ubbelohde) method; for mass density: Vibrating tube method
[2] = xn = mol fraction of the nth substance listed; conditions: 101 kPa, Liquid; for viscosity: Capillary tube (Ostwald / Ubbelohde) method; for mass density: Vibrating tube method

CCCCCCCC [octane]
[1]
Conditions	mass density [kg/m3]	viscosity [mPa·s]
283.15 K	710.61 ± 0.24	0.613 ± 0.013
293.15 K	702.6 ± 0.25	0.541 ± 0.012
298.15 K	698.55 ± 0.25	0.51 ± 0.011
303.15 K	694.5 ± 0.25	0.481 ± 0.01

CCCCCCCCN(CCCCCCCC)CCCCCCCC [trioctylamine] + CCCCCCCC
[2]
Conditions	mass density, 283.15 K [kg/m3]	mass density, 293.15 K [kg/m3]	mass density, 303.15 K [kg/m3]	viscosity, 283.15 K [mPa·s]	viscosity, 293.15 K [mPa·s]	viscosity, 303.15 K [mPa·s]
x1 = 0.1044	737.14 ± 0.27	729.58 ± 0.27	721.95 ± 0.27	1.045 ± 0.023	0.899 ± 0.02	0.78 ± 0.017
x1 = 0.2005	755.2 ± 0.29	747.83 ± 0.29	740.4 ± 0.29	1.63 ± 0.036	1.356 ± 0.03	1.145 ± 0.025
x1 = 0.2992	769.49 ± 0.32	762.3 ± 0.32	755.07 ± 0.32	2.385 ± 0.053	1.933 ± 0.043	1.593 ± 0.035
x1 = 0.4001	780.98 ± 0.36	773.93 ± 0.35	766.85 ± 0.35	3.399 ± 0.076	2.665 ± 0.059	2.145 ± 0.048
x1 = 0.4977	789.85 ± 0.39	782.91 ± 0.39	775.97 ± 0.39	4.545 ± 0.1	3.491 ± 0.079	2.734 ± 0.062
x1 = 0.6012	797.54 ± 0.44	790.72 ± 0.43	783.87 ± 0.43	5.969 ± 0.14	4.482 ± 0.1	3.46 ± 0.079
x1 = 0.7015	803.68 ± 0.48	796.94 ± 0.48	790.09 ± 0.48	7.556 ± 0.17	5.594 ± 0.13	4.231 ± 0.098
x1 = 0.7978	808.69 ± 0.53	802 ± 0.53	795.3 ± 0.52	9.424 ± 0.22	6.848 ± 0.16	5.092 ± 0.12
x1 = 0.897	813.09 ± 0.58	806.45 ± 0.58	799.81 ± 0.57	11.61 ± 0.27	8.242 ± 0.19	6.01 ± 0.14
x1 = 1	817.08 ± 0.64	810.48 ± 0.64	803.88 ± 0.63	14.25 ± 0.34	9.957 ± 0.24	7.114 ± 0.17

CCCCCCCCN(CCCCCCCC)CCCCCCCC [trioctylamine]
[1]
Conditions	mass density [kg/m3]	viscosity [mPa·s]
283.15 K	817.08 ± 0.64	14.25 ± 0.34
293.15 K	810.48 ± 0.64	9.957 ± 0.24
298.15 K	807.26 ± 0.63	8.392 ± 0.2
303.15 K	803.88 ± 0.63	7.114 ± 0.17

CCCCCCCC [octane] + CCCCCCCCN(CCCCCCCC)CCCCCCCC
[2], x2 = 0
Conditions	mass density [kg/m3]	viscosity [mPa·s]
283.15 K	710.61 ± 0.24	0.613 ± 0.013
293.15 K	702.6 ± 0.25	0.541 ± 0.012
303.15 K	694.5 ± 0.25	0.481 ± 0.01

CCCCCCC [heptane]
[1]
Conditions	mass density [kg/m3]	viscosity [mPa·s]
283.15 K	692.44 ± 0.25	0.469 ± 0.01
293.15 K	684.05 ± 0.25	0.42 ± 0.009
298.15 K	679.78 ± 0.25	0.397 ± 0.009
303.15 K	675.54 ± 0.25	0.377 ± 0.008

CCCCCCCCC [nonane]
[1]
Conditions	mass density [kg/m3]	viscosity [mPa·s]
283.15 K	725.58 ± 0.24	0.826 ± 0.018
293.15 K	717.86 ± 0.24	0.713 ± 0.015
298.15 K	713.95 ± 0.24	0.667 ± 0.014
303.15 K	710.06 ± 0.24	0.623 ± 0.014

CCCCCCCCC [nonane] + CCCCCCCCN(CCCCCCCC)CCCCCCCC
[2], x2 = 0
Conditions	mass density [kg/m3]	viscosity [mPa·s]
283.15 K	725.58 ± 0.24	0.826 ± 0.018
293.15 K	717.86 ± 0.24	0.713 ± 0.015
303.15 K	710.06 ± 0.24	0.623 ± 0.014

CCCCCCCCCC [decane]
[1]
Conditions	mass density [kg/m3]	viscosity [mPa·s]
283.15 K	737.54 ± 0.24	1.082 ± 0.023
293.15 K	730.01 ± 0.24	0.925 ± 0.02
298.15 K	726.22 ± 0.24	0.858 ± 0.019
303.15 K	722.44 ± 0.24	0.797 ± 0.017

CCCCCCC [heptane] + CCCCCCCCN(CCCCCCCC)CCCCCCCC
[2], x2 = 0
Conditions	mass density [kg/m3]	viscosity [mPa·s]
283.15 K	692.44 ± 0.25	0.469 ± 0.01
293.15 K	684.05 ± 0.25	0.42 ± 0.009
303.15 K	675.54 ± 0.25	0.377 ± 0.008

CCCCCCCCN(CCCCCCCC)CCCCCCCC [trioctylamine] + CCCCCCCCC
[2]
Conditions	mass density, 283.15 K [kg/m3]	mass density, 293.15 K [kg/m3]	mass density, 303.15 K [kg/m3]	viscosity, 283.15 K [mPa·s]	viscosity, 293.15 K [mPa·s]	viscosity, 303.15 K [mPa·s]
x1 = 0.1015	746.06 ± 0.27	738.6 ± 0.27	731.08 ± 0.27	1.277 ± 0.028	1.072 ± 0.023	0.918 ± 0.02
x1 = 0.2014	761.56 ± 0.29	754.29 ± 0.29	746.99 ± 0.29	1.932 ± 0.042	1.588 ± 0.035	1.326 ± 0.029
x1 = 0.3016	773.78 ± 0.32	766.67 ± 0.32	759.52 ± 0.32	2.701 ± 0.06	2.163 ± 0.048	1.766 ± 0.039
x1 = 0.3988	783.37 ± 0.36	776.38 ± 0.35	769.35 ± 0.35	3.656 ± 0.081	2.862 ± 0.064	2.273 ± 0.051
x1 = 0.4969	791.34 ± 0.39	784.45 ± 0.39	777.53 ± 0.39	4.815 ± 0.11	3.685 ± 0.083	2.881 ± 0.065
x1 = 0.5956	798.14 ± 0.43	791.33 ± 0.43	784.51 ± 0.43	6.134 ± 0.14	4.579 ± 0.11	3.514 ± 0.08
x1 = 0.6953	803.91 ± 0.48	797.16 ± 0.48	790.4 ± 0.47	7.725 ± 0.18	5.664 ± 0.13	4.267 ± 0.099
x1 = 0.7943	808.76 ± 0.53	802.07 ± 0.52	795.37 ± 0.52	9.548 ± 0.22	6.874 ± 0.16	5.069 ± 0.12
x1 = 0.9025	813.41 ± 0.59	806.77 ± 0.58	800.13 ± 0.58	11.89 ± 0.28	8.466 ± 0.2	6.161 ± 0.15
x1 = 1	817.08 ± 0.64	810.48 ± 0.64	803.88 ± 0.63	14.25 ± 0.34	9.957 ± 0.24	7.114 ± 0.17

CCCCCCCCN(CCCCCCCC)CCCCCCCC [trioctylamine] + CCCCCCCCCC
[2]
Conditions	mass density, 283.15 K [kg/m3]	mass density, 293.15 K [kg/m3]	mass density, 303.15 K [kg/m3]	viscosity, 283.15 K [mPa·s]	viscosity, 293.15 K [mPa·s]	viscosity, 303.15 K [mPa·s]
x1 = 0.1113	755.32 ± 0.27	748.01 ± 0.27	740.66 ± 0.27	1.64 ± 0.036	1.371 ± 0.03	1.152 ± 0.025
x1 = 0.1979	766.34 ± 0.29	759.17 ± 0.29	751.96 ± 0.29	2.266 ± 0.05	1.837 ± 0.04	1.514 ± 0.033
x1 = 0.297	776.77 ± 0.32	769.72 ± 0.32	762.64 ± 0.32	3.092 ± 0.068	2.448 ± 0.054	1.976 ± 0.044
x1 = 0.3974	785.51 ± 0.36	778.56 ± 0.35	771.59 ± 0.35	4.092 ± 0.091	3.172 ± 0.071	2.515 ± 0.056
x1 = 0.5044	793.3 ± 0.4	786.44 ± 0.39	779.56 ± 0.39	5.402 ± 0.12	4.086 ± 0.092	3.174 ± 0.072
x1 = 0.5913	798.73 ± 0.43	791.93 ± 0.43	785.11 ± 0.43	6.558 ± 0.15	4.896 ± 0.11	3.743 ± 0.086
x1 = 0.6888	804.03 ± 0.48	797.29 ± 0.47	790.53 ± 0.47	8.006 ± 0.18	5.85 ± 0.14	4.389 ± 0.1
x1 = 0.7962	809.11 ± 0.53	802.43 ± 0.53	795.73 ± 0.52	9.857 ± 0.23	7.086 ± 0.17	5.238 ± 0.12
x1 = 0.8991	813.37 ± 0.58	806.73 ± 0.58	800.09 ± 0.57	11.97 ± 0.28	8.401 ± 0.2	6.09 ± 0.14
x1 = 1	817.08 ± 0.64	810.48 ± 0.64	803.88 ± 0.63	14.25 ± 0.34	9.957 ± 0.24	7.114 ± 0.17

CCCCCCCCCC [decane] + CCCCCCCCN(CCCCCCCC)CCCCCCCC
[2], x2 = 0
Conditions	mass density [kg/m3]	viscosity [mPa·s]
283.15 K	737.54 ± 0.24	1.082 ± 0.023
293.15 K	730.01 ± 0.24	0.925 ± 0.02
303.15 K	722.44 ± 0.24	0.797 ± 0.017
